From ChEMBL document CHEMBL4373740, “Synthesis and biological evaluation of new MET inhibitors with 1,6-naphthyridinone scaffold” (Eur J Med Chem, 2020)

Experiments:
[1] = molecular target: Tyrosine-protein kinase JAK2 (Homo sapiens) (UniProt O60674); experiment: Inhibition of recombinant full length human GST-tagged JAK2 expressed in baculovirus expression system at 1 uM using biotin as substrate preincubated for 5 mins followed by substrate addition and measured after 30 to 60 mins in presence of ATP by HTRF assay relative to control
[2] = molecular target: Dual specificity tyrosine-phosphorylation-regulated kinase 3 (Homo sapiens) (UniProt O43781); experiment: (§1) Inhibition of recombinant human GST-tagged DYRK3 expressed in baculovirus system at 1 uM using biotin as substrate preincubated for 5 mins followed by substrate addition and measured after 30 to 60 mins in presence of ATP by HTRF assay relative to control
[3] = molecular target: Mitogen-activated protein kinase 9 (Homo sapiens) (UniProt P45984); experiment: Inhibition of recombinant full length human His-tagged MAPK9 expressed in baculovirus expression system at 1 uM using biotin as substrate preincubated for 5 mins followed by substrate addition and measured after 30 to 60 mins in presence of ATP by HTRF assay relative to control
Angiopoietin-1 receptor = Angiopoietin-1 receptor (Homo sapiens, UniProt Q02763); experiment: Inhibition of recombinant human GST-tagged TEK (817 to 1101 residues) expressed in baculovirus expression system using biotin as substrate preincubated for 5 mins followed by substrate addition and measured after 30 to 60 mins in presence of ATP by HTRF assay
[4] = molecular target: Mitogen-activated protein kinase 3 (Homo sapiens) (UniProt P27361); experiment: Inhibition of recombinant full length human GST-tagged MAPK3 expressed in Escherichia coli at 1 uM using biotin as substrate preincubated for 5 mins followed by substrate addition and measured after 30 to 60 mins in presence of ATP by HTRF assay relative to control
[5] = molecular target: Vascular endothelial growth factor receptor 3 (Homo sapiens, UniProt P35916); experiment: as §1, with “FLT4 catalytic domain (800 to 1297 residues)” for “DYRK3”, “baculovirus expression” for “baculovirus”
Chain of Vascular endothelial growth factor receptor 3 (P35916 whole entry, the tested form may be a part): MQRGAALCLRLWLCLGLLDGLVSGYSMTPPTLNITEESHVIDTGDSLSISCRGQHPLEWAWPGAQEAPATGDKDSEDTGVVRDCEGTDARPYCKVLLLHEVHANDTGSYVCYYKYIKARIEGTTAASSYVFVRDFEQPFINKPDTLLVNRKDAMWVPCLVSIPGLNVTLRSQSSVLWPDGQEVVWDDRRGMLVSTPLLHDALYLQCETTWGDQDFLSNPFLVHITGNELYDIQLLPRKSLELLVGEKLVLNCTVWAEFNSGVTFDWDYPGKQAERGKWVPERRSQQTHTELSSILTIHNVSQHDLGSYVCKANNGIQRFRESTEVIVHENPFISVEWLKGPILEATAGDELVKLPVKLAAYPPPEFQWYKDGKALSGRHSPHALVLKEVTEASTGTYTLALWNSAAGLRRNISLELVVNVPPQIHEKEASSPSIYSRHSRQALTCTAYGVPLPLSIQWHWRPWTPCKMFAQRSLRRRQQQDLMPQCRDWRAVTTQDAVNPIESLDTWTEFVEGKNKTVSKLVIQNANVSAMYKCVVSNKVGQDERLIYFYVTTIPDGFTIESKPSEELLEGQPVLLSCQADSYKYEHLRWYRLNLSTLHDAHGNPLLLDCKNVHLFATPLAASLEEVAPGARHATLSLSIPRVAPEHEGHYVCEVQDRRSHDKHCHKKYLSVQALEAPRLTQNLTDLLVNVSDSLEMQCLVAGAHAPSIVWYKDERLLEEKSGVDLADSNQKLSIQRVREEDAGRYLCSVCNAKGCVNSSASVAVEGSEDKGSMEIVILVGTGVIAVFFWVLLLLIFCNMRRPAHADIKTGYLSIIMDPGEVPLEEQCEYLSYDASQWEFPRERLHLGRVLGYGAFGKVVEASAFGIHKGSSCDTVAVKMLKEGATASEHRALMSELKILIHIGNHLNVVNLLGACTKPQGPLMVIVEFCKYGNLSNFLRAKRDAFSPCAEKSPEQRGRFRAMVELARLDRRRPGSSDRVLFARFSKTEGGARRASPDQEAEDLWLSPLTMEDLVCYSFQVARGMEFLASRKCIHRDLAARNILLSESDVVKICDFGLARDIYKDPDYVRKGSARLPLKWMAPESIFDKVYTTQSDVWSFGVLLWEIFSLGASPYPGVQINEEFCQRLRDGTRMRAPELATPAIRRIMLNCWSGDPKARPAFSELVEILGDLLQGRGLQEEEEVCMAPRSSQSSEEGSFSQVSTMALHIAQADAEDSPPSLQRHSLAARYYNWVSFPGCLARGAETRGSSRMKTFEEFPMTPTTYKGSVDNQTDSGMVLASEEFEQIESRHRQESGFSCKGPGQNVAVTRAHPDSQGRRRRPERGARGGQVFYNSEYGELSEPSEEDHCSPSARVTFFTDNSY

Chain of Tyrosine-protein kinase JAK2 (Homo sapiens) (O60674 whole entry): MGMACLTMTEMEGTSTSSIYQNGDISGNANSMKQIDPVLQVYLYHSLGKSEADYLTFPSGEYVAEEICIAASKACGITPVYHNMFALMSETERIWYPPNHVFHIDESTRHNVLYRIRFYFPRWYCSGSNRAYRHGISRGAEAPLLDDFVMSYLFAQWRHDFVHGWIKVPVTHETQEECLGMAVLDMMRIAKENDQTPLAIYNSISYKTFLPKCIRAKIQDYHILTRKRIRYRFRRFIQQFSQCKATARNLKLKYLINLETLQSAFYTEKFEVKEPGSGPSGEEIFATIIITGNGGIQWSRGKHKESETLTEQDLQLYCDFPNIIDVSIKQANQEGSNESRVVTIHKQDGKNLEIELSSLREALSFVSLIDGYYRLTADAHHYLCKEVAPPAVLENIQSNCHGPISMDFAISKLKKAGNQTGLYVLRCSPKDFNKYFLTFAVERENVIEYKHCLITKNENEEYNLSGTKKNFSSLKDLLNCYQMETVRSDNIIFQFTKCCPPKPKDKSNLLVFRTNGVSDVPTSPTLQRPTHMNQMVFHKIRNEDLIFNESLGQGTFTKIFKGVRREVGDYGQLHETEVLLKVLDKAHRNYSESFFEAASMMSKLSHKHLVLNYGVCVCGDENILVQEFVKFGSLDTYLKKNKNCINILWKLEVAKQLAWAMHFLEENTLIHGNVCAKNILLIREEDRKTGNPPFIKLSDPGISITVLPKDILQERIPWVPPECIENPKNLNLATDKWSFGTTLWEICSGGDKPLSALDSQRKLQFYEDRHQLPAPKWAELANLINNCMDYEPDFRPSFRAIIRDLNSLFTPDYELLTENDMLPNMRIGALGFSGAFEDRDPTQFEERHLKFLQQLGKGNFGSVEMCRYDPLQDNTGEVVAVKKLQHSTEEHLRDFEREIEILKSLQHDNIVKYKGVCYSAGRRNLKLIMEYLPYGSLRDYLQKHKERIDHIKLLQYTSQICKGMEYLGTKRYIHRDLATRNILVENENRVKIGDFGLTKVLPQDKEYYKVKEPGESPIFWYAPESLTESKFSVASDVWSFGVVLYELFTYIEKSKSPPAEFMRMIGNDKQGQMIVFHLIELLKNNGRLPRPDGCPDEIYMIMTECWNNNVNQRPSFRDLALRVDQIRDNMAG
Chain of Mitogen-activated protein kinase 3 (Homo sapiens) (P27361 whole entry, the tested form may be a part): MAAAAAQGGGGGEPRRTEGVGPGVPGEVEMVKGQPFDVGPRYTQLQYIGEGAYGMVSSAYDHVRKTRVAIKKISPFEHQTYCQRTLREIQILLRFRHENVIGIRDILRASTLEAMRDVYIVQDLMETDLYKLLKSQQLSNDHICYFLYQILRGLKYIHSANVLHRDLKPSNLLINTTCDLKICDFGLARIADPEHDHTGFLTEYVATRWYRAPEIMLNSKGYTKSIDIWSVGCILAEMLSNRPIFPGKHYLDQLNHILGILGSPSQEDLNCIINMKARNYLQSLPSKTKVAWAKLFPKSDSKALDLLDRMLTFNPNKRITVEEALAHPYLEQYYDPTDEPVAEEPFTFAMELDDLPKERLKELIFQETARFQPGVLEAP
Chain of Dual specificity tyrosine-phosphorylation-regulated kinase 3 (Homo sapiens) (O43781 whole entry): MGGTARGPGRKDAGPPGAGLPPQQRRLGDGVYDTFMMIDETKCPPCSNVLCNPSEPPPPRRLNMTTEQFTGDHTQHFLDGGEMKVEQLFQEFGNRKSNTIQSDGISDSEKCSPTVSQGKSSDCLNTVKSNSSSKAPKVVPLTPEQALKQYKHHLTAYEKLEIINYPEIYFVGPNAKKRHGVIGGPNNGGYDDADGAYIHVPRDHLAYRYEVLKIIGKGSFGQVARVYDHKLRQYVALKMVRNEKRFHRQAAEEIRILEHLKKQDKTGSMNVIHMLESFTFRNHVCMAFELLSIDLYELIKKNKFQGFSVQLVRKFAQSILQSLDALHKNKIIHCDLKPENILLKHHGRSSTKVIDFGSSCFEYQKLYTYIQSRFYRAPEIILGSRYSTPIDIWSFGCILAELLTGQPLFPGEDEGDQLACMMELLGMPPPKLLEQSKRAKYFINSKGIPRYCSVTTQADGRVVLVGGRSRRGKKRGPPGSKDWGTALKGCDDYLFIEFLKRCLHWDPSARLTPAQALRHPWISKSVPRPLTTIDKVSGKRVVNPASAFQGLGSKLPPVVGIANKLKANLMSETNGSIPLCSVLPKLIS
Chain of Angiopoietin-1 receptor (Q02763 whole entry, the tested form may be a part): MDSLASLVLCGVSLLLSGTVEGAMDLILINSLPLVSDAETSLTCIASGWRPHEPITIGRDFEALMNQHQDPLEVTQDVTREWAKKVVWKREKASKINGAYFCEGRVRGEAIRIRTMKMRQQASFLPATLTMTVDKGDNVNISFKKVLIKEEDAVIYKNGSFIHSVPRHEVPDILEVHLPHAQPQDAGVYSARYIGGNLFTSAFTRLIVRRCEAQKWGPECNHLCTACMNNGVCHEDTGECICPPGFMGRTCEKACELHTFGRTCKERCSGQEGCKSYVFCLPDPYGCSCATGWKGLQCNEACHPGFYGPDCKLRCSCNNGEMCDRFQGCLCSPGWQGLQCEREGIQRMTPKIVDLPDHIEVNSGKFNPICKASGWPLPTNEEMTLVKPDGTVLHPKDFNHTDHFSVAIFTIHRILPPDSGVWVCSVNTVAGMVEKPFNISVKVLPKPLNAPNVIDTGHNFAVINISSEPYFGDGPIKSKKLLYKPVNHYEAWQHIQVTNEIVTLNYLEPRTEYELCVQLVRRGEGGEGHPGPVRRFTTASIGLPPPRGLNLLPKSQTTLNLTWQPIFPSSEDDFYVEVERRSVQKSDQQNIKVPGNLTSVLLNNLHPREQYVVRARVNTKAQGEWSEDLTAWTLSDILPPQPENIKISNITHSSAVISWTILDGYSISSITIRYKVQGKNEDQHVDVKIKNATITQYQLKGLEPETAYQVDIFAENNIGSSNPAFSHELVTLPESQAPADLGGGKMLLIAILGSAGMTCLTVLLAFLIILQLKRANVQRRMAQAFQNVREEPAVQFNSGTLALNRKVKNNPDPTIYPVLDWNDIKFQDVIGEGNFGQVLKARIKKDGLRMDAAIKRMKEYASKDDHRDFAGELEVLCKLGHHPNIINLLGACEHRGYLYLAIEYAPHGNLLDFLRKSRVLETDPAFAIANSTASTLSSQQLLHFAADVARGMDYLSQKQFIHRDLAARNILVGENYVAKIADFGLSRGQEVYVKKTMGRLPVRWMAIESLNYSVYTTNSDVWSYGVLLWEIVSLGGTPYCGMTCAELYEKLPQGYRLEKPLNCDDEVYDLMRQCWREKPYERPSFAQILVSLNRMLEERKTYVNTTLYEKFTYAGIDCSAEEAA
Chain of Mitogen-activated protein kinase 9 (Homo sapiens) (P45984 whole entry, looked up, the tested form may be a part): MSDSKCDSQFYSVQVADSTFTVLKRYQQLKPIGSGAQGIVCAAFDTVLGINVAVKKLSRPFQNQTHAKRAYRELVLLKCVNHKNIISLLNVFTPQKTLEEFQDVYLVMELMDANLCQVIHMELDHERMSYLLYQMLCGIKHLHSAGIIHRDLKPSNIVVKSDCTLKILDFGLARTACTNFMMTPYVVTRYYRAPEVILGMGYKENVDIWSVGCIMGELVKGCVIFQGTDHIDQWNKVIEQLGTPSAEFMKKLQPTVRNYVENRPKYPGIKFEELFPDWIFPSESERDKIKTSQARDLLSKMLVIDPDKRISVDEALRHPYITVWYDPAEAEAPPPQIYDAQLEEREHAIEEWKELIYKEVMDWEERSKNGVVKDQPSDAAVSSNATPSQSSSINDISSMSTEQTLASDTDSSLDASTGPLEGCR

inhibition [1]: < 50%
inhibition [2]: < 50%
inhibition [3]: < 50%
IC50 (Angiopoietin-1 receptor): 26.3 nM
inhibition [4]: < 50%
inhibition [5]: < 50%
Structure (SMILES): Cn1cc(-c2ccc(F)cc2)c(=O)c2c(Nc3ccc(Oc4ccnc(NC(=O)C5CC5)c4)c(F)c3)nccc21
